ChEMBL document CHEMBL1201862, “PubChem BioAssay data set” (2004)
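Where inhibition never reached the appropriate level, the endpoint shown equals the highest concentration tested. Otherwise, values were interpolated linearly from a five-concentration, 48-hour dose response in 96-well plates. At the GI50, growth is halved.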 Active and inactive are the calls of the source. Cut-off read from the data, not from the text of the source: active = GI50 up to about 1.1 µM and inactive = higher.

What was measured:
Assay in all cases: NCI-60 cell line screen, 48 h
[1] = test system: 786-0
[2] = test system: A498
[3] = test system: EKVX
[4] = test system: HCT-116
[5] = test system: MOLT-4
[6] = test system: NCI-H226
[7] = test system: NCI-H23
[8] = test system: NCI-H460
[9] = test system: NCI-H522
[10] = test system: OVCAR-8
[11] = test system: SF-539
[12] = test system: SW-620
[13] = test system: U-251
[14] = test system: UACC-257
[15] = test system: UO-31
[16] = test system: ACHN
[17] = test system: OVCAR-4

Measured: GI50

COC12OCCN(C)C1=CC(=O)C1N=NCC12 (configuration not stated)
inactive: [1] > 100 µM | [2] > 100 µM | [3] > 100 µM | [4] > 100 µM | [5] > 100 µM | [6] > 100 µM | [7] > 100 µM | [8] > 100 µM | [9] > 100 µM | [10] > 100 µM | [11] > 100 µM | [12] > 100 µM | [13] > 100 µM | [14] > 100 µM | [15] > 100 µM

Cc1cc(NS(=O)(=O)c2ccc(Nc3c4ccccc4nc4c(C(=O)Nc5ccc(S(=O)(=O)N=C(N)N)cc5)cccc34)cc2)no1
inactive: [1] > 100 µM | [2] > 100 µM | [16] > 100 µM | [3] > 100 µM | [4] > 100 µM | [5] > 100 µM | [7] > 100 µM | [8] > 100 µM | [9] > 100 µM | [17] > 100 µM | [10] > 100 µM | [11] > 100 µM | [12] > 100 µM | [13] > 100 µM | [14] > 100 µM | [15] > 100 µM

C1CSC(=[N+]2CC[N+](=C3SCCS3)CC2)S1
inactive: [1] > 100 µM | [2] > 100 µM | [16] > 100 µM | [3] > 100 µM | [4] > 100 µM | [5] 44.9 µM | [7] > 100 µM | [8] > 100 µM | [9] > 100 µM | [17] > 100 µM | [10] > 100 µM | [11] > 100 µM | [12] > 100 µM | [13] > 100 µM | [14] > 100 µM | [15] > 100 µM

NC(=O)C(=Cc1ccc(C(O)P(=O)(O)O)cc1)C(N)=O (configuration not stated)
inactive: [1] > 100 µM | [2] > 100 µM | [16] > 100 µM | [3] > 100 µM | [4] > 100 µM | [5] > 100 µM | [7] > 100 µM | [8] > 100 µM | [9] > 100 µM | [17] > 100 µM | [10] > 100 µM | [11] > 100 µM | [12] > 100 µM | [13] > 100 µM | [14] > 100 µM | [15] > 100 µM

COC1CC(O[C@H]2CC[C@@]3(C)C(=CCC4(O)C3CCC35C(=O)OC6(C)O[C@@]43CCC65)C2)OC(C)C1O (some centres not stated)
inactive: [1] > 100 µM | [2] > 100 µM | [16] > 100 µM | [3] > 100 µM | [4] > 100 µM | [5] > 100 µM | [6] > 100 µM | [7] > 100 µM | [8] > 100 µM | [9] > 100 µM | [17] > 100 µM | [10] > 100 µM | [11] > 100 µM | [13] > 100 µM | [14] > 100 µM | [15] > 100 µM

COc1ccc2c3c([nH]c(=O)c2c1C(=O)O)-c1ccccc1CC3
inactive: [1] > 100 µM | [2] > 100 µM | [16] > 100 µM | [3] 49.7 µM | [4] > 100 µM | [5] > 100 µM | [6] 65.8 µM | [7] > 100 µM | [8] > 100 µM | [9] > 100 µM | [17] > 100 µM | [11] > 100 µM | [12] > 100 µM | [13] > 100 µM | [15] > 100 µM

COc1ccccc1NC(=O)C1=C(C)NC(C)=C(C(=O)Nc2ccccc2OC)C1c1cccc2c1OCO2
inactive: [1] > 100 µM | [2] > 100 µM | [16] 58.9 µM | [3] > 100 µM | [4] 71.9 µM | [5] 20.7 µM | [6] > 100 µM | [7] > 100 µM | [8] > 100 µM | [17] > 100 µM | [10] > 100 µM | [11] 21.4 µM | [12] > 100 µM | [13] > 100 µM | [14] > 100 µM | [15] 47.4 µM

CC(C)c1ccc(/C=C/c2cc(C(=O)NNC(=O)NC3CCCCC3)nc(S)n2)cc1
inactive: [1] > 100 µM | [2] > 100 µM | [16] > 100 µM | [3] > 100 µM | [4] > 100 µM | [6] > 100 µM | [7] > 100 µM | [8] > 100 µM | [9] > 100 µM | [17] > 100 µM | [10] > 100 µM | [11] > 100 µM | [12] > 100 µM | [13] > 100 µM | [14] > 100 µM | [15] > 100 µM

CCN(CC)c1ccc(/N=N/c2ccc(-c3nc4cccnc4o3)cc2)cc1
inactive: [1] > 100 µM | [2] > 100 µM | [16] > 100 µM | [3] > 100 µM | [4] > 100 µM | [5] > 100 µM | [6] > 100 µM | [7] > 100 µM | [9] 66.4 µM | [17] > 100 µM | [10] > 100 µM | [11] > 100 µM | [12] > 100 µM | [13] > 100 µM | [14] > 100 µM | [15] > 100 µM

Cn1cc2ccccc2c1-c1nc(F)nc(F)n1
inactive: [1] > 100 µM | [2] > 100 µM | [16] > 100 µM | [3] > 100 µM | [4] > 100 µM | [5] 55 µM | [6] > 100 µM | [7] > 100 µM | [8] > 100 µM | [9] > 100 µM | [17] > 100 µM | [11] > 100 µM | [12] > 100 µM | [13] > 100 µM | [15] > 100 µM

O=C(O)Cc1ccc2c(c1O)C(=O)c1c(ccc(CC(=O)O)c1O)C2=O
inactive: [1] > 100 µM | [2] > 100 µM | [16] > 100 µM | [3] > 100 µM | [4] > 100 µM | [5] > 100 µM | [6] > 100 µM | [7] > 100 µM | [8] > 100 µM | [9] > 100 µM | [17] > 100 µM | [10] > 100 µM | [11] > 100 µM | [12] > 100 µM | [13] > 100 µM | [14] > 100 µM

CC(CC(=O)Nc1ccc(NC(=O)CC(C)/N=N\C(N)=S)cc1)/N=N\C(N)=S (configuration not stated)
inactive: [1] > 100 µM | [2] > 100 µM | [16] > 100 µM | [3] > 100 µM | [4] > 100 µM | [5] > 100 µM | [6] > 100 µM | [7] > 100 µM | [8] > 100 µM | [17] > 100 µM | [10] > 100 µM | [11] > 100 µM | [14] > 100 µM | [15] > 100 µM
